# Results as given in patent US4642355A, “Proline derivatives” (Otsuka Pharmaceutical Factory, Inc., priority 1984, dated 1987).
# Structures can show the parent of a compound that is named as a salt.
# Legend:
# [1] = target: T1, angiotensin-converting enzyme (ACE) (Oryctolagus cuniculus, UniProt P12822); assay: Inhibitory activity against angiotensin-converting enzyme (ACE); type: biochemical, rabbit; details: for IC50: enzyme from rabbit lung acetone powder, substrate hippurylhistidyl-leucine, 37° C.
# T1 construct: enzyme solution prepared from rabbit lung acetone powder; tissue Sigma Chemical Co., Ltd., U.S.A; host or cells: rabbit lung (acetone powder)
# T1 sequence (P12822 34-1310): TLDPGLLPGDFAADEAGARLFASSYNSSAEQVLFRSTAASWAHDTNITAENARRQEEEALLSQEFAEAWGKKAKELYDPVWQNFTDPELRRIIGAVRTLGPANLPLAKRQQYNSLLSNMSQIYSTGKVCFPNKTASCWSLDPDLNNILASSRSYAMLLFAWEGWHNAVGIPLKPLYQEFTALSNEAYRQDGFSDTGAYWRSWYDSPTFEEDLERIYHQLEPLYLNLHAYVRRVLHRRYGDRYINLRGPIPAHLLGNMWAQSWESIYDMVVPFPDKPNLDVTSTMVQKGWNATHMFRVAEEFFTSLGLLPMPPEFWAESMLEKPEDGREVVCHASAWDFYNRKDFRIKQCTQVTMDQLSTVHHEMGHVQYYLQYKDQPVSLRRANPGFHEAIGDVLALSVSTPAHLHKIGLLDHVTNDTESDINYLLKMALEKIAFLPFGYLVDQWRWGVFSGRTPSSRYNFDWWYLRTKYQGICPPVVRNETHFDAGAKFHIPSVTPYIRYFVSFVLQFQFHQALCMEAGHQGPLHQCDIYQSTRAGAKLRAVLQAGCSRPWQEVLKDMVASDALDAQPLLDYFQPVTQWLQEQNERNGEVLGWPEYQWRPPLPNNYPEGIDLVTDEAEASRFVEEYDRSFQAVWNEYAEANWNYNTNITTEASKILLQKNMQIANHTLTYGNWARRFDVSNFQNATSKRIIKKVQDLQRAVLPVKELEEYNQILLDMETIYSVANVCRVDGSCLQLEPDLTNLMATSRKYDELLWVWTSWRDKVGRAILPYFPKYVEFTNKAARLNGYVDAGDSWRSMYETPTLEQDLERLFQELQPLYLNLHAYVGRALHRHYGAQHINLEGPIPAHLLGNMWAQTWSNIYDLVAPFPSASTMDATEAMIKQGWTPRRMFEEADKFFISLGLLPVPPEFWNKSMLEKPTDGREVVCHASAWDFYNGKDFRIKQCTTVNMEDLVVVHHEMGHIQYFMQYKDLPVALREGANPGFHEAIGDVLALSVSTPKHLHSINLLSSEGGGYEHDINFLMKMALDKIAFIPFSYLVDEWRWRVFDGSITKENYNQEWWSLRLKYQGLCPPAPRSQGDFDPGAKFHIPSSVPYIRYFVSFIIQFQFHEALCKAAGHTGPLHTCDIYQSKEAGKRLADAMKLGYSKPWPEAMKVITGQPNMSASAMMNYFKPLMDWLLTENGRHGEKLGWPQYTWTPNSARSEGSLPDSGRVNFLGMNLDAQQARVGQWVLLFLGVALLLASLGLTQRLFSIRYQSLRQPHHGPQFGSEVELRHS
# Description: Inhibitory activity against angiotensin-converting enzyme (ACE)
# A 100 μl quantity of an enzyme solution prepared from rabbit lung acetone powder (product of Sigma Chemical Co., Ltd., U.S.A.) was mixed with 100 μl of a sample solution. The mixture was gently shaken at 37° C. for 10 minutes. To the reaction mixture was added 100 μl of a solution containing 6.99 mM of hippurylhistidyl-leucine (product of Peptide Institute, Inc., Japan) as a substrate. The mixture was reacted at 37° C. for 45 minutes while being shaken. The reaction was terminated by addition of 200 μl of a 1N sulfuric acid aqueous solution to the reaction mixture. Sodium chloride (saturation amount) and diethyl ether (2 ml) were added to the reaction mixture to extract the hippuric acid formed by the reaction. The resulting mixture was vigorously shaken for 15 minutes and centrifuged at 2000 rpm for 5 minutes. A 1.5 ml quantity of the ether layer was separated. After the solvent was distilled off, the residue was redissolved in 1.5 ml of distilled water and the absorbance at 228 nm was measured. A control was prepared by repeating the same procedure as above except that 100 μl of distilled water was used in place of the sample solution.
# The inhibitory activity was calculated by deducting the absorbance value of the residue formed by addition of the sample solution from that of the control, and the resulting value was divided by the absorbance value of the control and multiplied by 100, thereby giving a percent inhibition. The inhibitory activity was expressed as IC50, i.e., the concentration of the sample solution in the reaction mixture in which concentration 50% inhibition is achieved.
# The test compounds used in the experiment are shown below.
# [2] = test system: angiotensin-converting enzyme (ACE); assay: ACE inhibitory effect in normotensive rats (inhibition of pressor response to angiotensin I); type: in vivo; details: 1 mg/kg directly to the stomach, male Wistar rats, urethane anesthesia, AI/AII ratio
# Description: ACE Inhibitory effect in normotensive rats
# Male Wistar rats weighing 200 to 400 g were anesthetized by the intraperitoneal injection of urethane (1.25 g/kg) and held in the supine position. The degree of inhibition of pressor response to angiotensin (A) I was determined using these rats. The blood pressure was measured with a femoral artery cannula connected to a transducer (product of Nihon Kohden Kabushiki Kaisha, Japan, Model MPU-0.5-290-0-III) and recorded in terms of a mean blood pressure value through a carrier amplifier (product of Nihon Kohden Kabushiki Kaisha, Japan, Model RP-5) on a multipurpose polygraph (product of Nihon Kohden Kabushiki Kaisha, Japan, Model RM-85). The rats were set in an experimental device and left therein for 1 hour to stabilize the hemodynamics. Then experiments were commenced. Since the magnitude of the pressor response to AI varies with time, the ratio of the responses to AI and AII (AI/AII ratio) was used to determine the magnitude of the pressor response to AI which ratio remained more constant. Through the cannulated femoral vein, AI (300 ng/kg) was administered first and AII (300 ng/kg) was given in 5 minutes to measure an AI/AII ratio. At 30 minutes after the first administration of AI, AI (300 ng/kg) was similarly administered and AII (300 ng/kg) was given in 5 minutes, followed by measuring an AI/AII ratio. This procedure was repeated until a constant value of AI/AII ratio was obtained. (The mean value of AI/AII ratios each resulting from the repeated procedure is represented as "C" in an equation to be shown later). At 10 minutes after the final administration of AII, an aqueous solution containing 1 mg/kg of each test compound was given directly to the stomach through a vinyl tube. At 10 minutes after administration of the test compound, AI (300 ng/kg) was given and at 5 minutes later, AII (300 ng/kg) was administered, followed by measurement of the AI/AII ratio (which was represented as "E" in the following equation). An ACE percent inhibition was calculated according to the equation indicated below. [formula]
# Subsequently at each time of 60, 120 and 240 minutes after the administration of the test compound, AI (300 ng/kg) was given in the same manner as above and AII (300 ng/kg) was administered in 5 minutes, whereupon an ACE percent inhibition was calculated in the same way.
# The results are shown below in Table 26 in which the test compounds listed are those prepared in the Examples indicated therein.
SMILES,ACE inhibitory activity higher than Test Compound No. 4 (fold) ([1]; compared with Test Compound No. 4),IC50 [1] [nM],"ACE Percent Inhibition, mean ± SD ([2]; 15 min. after administration) [%]","ACE Percent Inhibition, mean ± SD ([2]; 60 min. after administration) [%]","ACE Percent Inhibition, mean ± SD ([2]; 120 min. after administration) [%]","ACE Percent Inhibition, mean ± SD ([2]; 240 min. after administration) [%]"
"CCCCCSC[C@H](NC(C)C(=O)N1CCC[C@H]1C(=O)O)C(=O)O (stereo partly drawn) [Test Compound 3, N--[(R)--1-carboxy-2-pentylthioethyl]-alanyl-(S)--proline (β-isomer)]",about 122 times,0.104,,,,
"CSCC[C@H](NC(C)C(=O)N1CCC[C@H]1C(=O)O)C(=O)O (stereo partly drawn) [Test Compound 4, N--[(S)--1-carboxy-3-methylthiopropyl]-(R,S)--alanyl-(S)--proline, reference compound]",,12.7,,,,
"COC(=O)[C@H](CCSC)NC(C)C(=O)N1CCC[C@H]1C(=O)O (stereo partly drawn) [Test Compound 5, N--[(S)--1-methoxycarbonyl-3-methylthiopropyl]-(R,S)--alanyl-(S)--proline hydrochloride, reference compound]",,5240,1 ± 5,6 ± 4,7 ± 6,9 ± 1
